Laboratory results as given in US9650379B2 (CHONG KUN DANG PHARMACEUTICAL CORP., priority 2013, dated 2017).

Experiments:
HDAC6 human recombinant = molecular target: T1, HDAC6 human recombinant (Homo sapiens, UniProt Q9UBN7); experiment: Inhibition of HDAC6 activity (fluorimetric assay); format: biochemical; settings: test concentrations 0.1, 1, 10, 100 and 1000 nM; 37° C., 60 minutes
T1 construct: purchased Calbiochem 382180
T1 sequence (Q9UBN7 1-1215): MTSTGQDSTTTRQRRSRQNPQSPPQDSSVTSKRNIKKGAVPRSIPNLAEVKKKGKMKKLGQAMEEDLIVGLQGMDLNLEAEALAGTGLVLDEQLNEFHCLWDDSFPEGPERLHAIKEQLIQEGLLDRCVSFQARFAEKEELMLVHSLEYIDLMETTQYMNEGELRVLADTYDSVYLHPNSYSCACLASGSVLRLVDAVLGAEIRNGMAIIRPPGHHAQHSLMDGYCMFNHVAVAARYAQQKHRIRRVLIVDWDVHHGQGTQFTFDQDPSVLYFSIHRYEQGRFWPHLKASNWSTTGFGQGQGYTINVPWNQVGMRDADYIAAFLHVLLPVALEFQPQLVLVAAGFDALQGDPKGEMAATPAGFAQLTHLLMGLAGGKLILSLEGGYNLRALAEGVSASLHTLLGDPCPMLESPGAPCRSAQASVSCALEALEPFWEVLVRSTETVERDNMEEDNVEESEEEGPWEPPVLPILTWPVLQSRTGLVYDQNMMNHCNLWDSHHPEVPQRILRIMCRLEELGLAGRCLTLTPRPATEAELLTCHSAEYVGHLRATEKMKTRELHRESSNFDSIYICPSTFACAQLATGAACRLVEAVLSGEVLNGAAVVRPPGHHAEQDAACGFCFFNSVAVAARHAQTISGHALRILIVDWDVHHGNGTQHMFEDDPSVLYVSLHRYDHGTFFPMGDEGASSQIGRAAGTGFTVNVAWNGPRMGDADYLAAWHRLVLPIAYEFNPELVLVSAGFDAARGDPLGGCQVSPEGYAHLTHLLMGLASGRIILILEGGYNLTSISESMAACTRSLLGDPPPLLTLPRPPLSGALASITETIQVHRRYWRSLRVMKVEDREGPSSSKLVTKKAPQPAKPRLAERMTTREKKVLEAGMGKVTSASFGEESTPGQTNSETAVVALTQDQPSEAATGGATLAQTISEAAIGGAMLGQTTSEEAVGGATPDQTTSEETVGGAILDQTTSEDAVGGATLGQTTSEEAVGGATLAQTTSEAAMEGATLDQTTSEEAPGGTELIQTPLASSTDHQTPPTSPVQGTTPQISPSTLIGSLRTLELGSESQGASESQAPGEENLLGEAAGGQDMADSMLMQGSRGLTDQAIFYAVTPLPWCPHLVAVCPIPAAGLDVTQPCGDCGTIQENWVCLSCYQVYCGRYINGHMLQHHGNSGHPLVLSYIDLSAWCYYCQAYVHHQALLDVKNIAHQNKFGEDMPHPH
Experimental: (§1) Assays were performed using a HDAC1 fluorimetric drug discovery assay kit (Enzolifesciences: BML-AK511) and a HDAC6 human recombinant (Calbiochem: 382180). The assay mixture of the kit was treated with a test compound at concentrations of 100, 1000 and 10000 nM for HDAC1 assay and concentrations of 0.1, 1, 10, 100 and 1000 nM for HDAC6 assay. The treated assay mixture was allowed to react at 37° C. for 60 minutes, and then was treated with a developer and allowed to stand at 37° C. for 30 minutes, followed by quantification of the fluorescence.

HDAC1 = molecular target: T2, HDAC1 (Homo sapiens, UniProt Q13547); experiment: Inhibition of HDAC1 activity (HDAC1 fluorimetric drug discovery assay kit); format: biochemical; settings: test concentrations 100, 1000 and 10000 nM; 37° C., 60 minutes
T2 construct: purchased Enzolifesciences BML-AK511
T2 sequence (Q13547 whole entry): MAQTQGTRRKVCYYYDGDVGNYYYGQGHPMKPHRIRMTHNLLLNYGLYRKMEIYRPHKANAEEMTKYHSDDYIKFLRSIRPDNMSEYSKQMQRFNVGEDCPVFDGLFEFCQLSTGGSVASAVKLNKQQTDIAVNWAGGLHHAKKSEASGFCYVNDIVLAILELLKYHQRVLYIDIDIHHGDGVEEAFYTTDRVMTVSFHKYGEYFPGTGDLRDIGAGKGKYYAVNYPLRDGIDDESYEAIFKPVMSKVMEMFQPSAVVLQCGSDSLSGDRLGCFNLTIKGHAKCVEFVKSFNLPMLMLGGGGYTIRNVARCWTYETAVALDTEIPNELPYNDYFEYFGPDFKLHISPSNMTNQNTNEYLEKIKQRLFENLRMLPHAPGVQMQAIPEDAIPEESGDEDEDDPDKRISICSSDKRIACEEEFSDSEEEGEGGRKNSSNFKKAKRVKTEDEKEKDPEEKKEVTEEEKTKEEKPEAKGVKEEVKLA
Experimental: as §1

SMILES | IC50 (HDAC6 human recombinant) [nM] | IC50 (HDAC1) [nM]
O=C(NO)c1ccc(Cn2ccc3cc(-c4cncnc4)cnc32)cc1 [Compound 124, N-hydroxy-4-((5-(pyrimidin-5-yl)-1H-pyrrolo[2,3-b]pyridin-1-yl)methyl)benzamide] | 120 | 540
O=C(NO)c1ccc(Cn2ccc3cc(-c4ccc(F)cc4F)cnc32)cc1 [Compound 125, 4-((5-(2,4-difluorophenyl)-1H-pyrrolo[2,3-b]pyridin-1-yl)methyl)-N-hydroxybenzamide] | 52 | 1610
CC(C)(C)OC(=O)N1CCN(c2ccnc3c2ccn3Cc2ccc(C(=O)NO)cc2)CC1 [Compound 212] | 14 | 890
CC(C)(F)CN1CCC(c2cnc3c(ccn3Cc3ccc(C(=O)NO)cc3)c2)CC1 [Compound 618, 4-((5-(1-(2-fluoro-2-methylpropyl)piperidin-4-yl)-1H-pyrrolo[2,3-b]pyridin-1-yl)methyl)-N-hydroxybenzamide] | 16 | 1300
O=C(NO)c1ccc(Cn2ccc3cc(C4CCOCC4)cnc32)cc1 [Compound 635, N-hydroxy-4-((5-(tetrahydro-2H-pyran-4-yl)-1H-pyrrolo[2,3-b]pyridin-1-yl)methyl)benzamide] | 11 | 1170
O=C(NO)c1ccc(Cn2ccc3cc(-c4ccccc4)cnc32)cc1 [Compound 645, N-hydroxy-4-((5-phenyl-1H-pyrrolo[2,3-b]pyridin-1-yl)methyl)benzamide] | 17 | 3050
CN1CC=C(c2cnc3c(ccn3Cc3ccc(C(=O)NO)cc3)c2)CC1 [Compound 647, N-hydroxy-4-((5-(1-methyl-1,2,3,6-tetrahydropyridin-4-yl)-1H-pyrrolo[2,3-b]pyridin-1-yl)methyl)benzamide] | 15 | 1170
O=C(NO)c1ccc(Cn2ccc3cc(C4=CCCCC4)cnc32)cc1 [Compound 648, 4-((5-(cyclohex-1-en-1-yl)-1H-pyrrolo[2,3-b]pyridin-1-yl)methyl)-N-hydroxybenzamide] | 18 | 3550
CC1(C)CC=C(c2cnc3c(ccn3Cc3ccc(C(=O)NO)cc3)c2)CC1 [Compound 649] | 93 | 7050
O=C(NO)c1ccc(Cn2ccc3cc(C4=CCC(F)(F)CC4)cnc32)cc1 [Compound 650, 4-((5-(4,4-difluorocyclohex-1-en-1-yl)-1H-pyrrolo[2,3-b]pyridin-1-yl)methyl)-N-hydroxybenzamide] | 14 | 2300
O=C(NO)c1ccc(Cn2ccc3c(-c4ccccc4)ccnc32)cc1 [Compound 656, N-hydroxy-4-((4-phenyl-1H-pyrrolo[2,3-b]pyridin-1-yl)methyl)benzamide] | 16 | 1350
O=C(NO)c1ccc(Cn2ccc3c(-c4ccc(F)cc4F)ccnc32)cc1 [Compound 658, 4-((4-(2,4-difluorophenyl)-1H-pyrrolo[2,3-b]pyridin-1-yl)methyl)-N-hydroxybenzamide] | 21 | 1950
CC(C)(O)CN1CC=C(c2cnc3c(ccn3Cc3ccc(C(=O)NO)cc3)c2)CC1 [Compound 686, N-hydroxy-4-((5-(1-(2-hydroxy-2-methylpropyl)-1,2,3,6-tetrahydropyridin-4-yl)-1H-pyrrolo[2,3-b]pyridin-1-yl)methyl)benzamide] | 39 | 2740
O=C(NO)c1ccc(Cn2ccc3cc(-c4cnc(O)nc4)cnc32)cc1 [Compound 687, N-hydroxy-4-((5-(2-hydroxypyrimidin-5-yl)-1H-pyrrolo[2,3-b]pyridin-1-yl)methyl)benzamide] | 61 | 3230
O=C(NO)c1ccc(Cn2ccc3cc(-c4ccc5cccnc5c4)cnc32)cc1 [Compound 688, N-hydroxy-4-((5-(quinolin-7-yl)-1H-pyrrolo[2,3-b]pyridin-1-yl)methyl)benzamide] | 22 | 4610
COc1ccc(-c2cnc3c(ccn3Cc3ccc(C(=O)NO)cc3)c2)cc1 [Compound 689, N-hydroxy-4-((5-(4-methoxyphenyl)-1H-pyrrolo[2,3-b]pyridin-1-yl)methyl)benzamide] | 83 | 3170
COc1ccc(CN2CCC(c3cnc4c(ccn4Cc4ccc(C(=O)NO)cc4)c3)CC2)cn1 [Compound 1098, N-hydroxy-4-((5-(1-((6-methoxypyridin-3-yl)methyl)piperidin-4-yl)-1H-pyrrolo[2,3-b]pyridin-1-yl)methyl)benzamide] | 5230 | 

Stronger by IC50 (HDAC6 human recombinant), values ahead:

IC50 (HDAC6 human recombinant) [nM] | IC50 (HDAC1) [nM] | SMILES
9 | 4220 | CC(C)(F)CN1CC=C(c2cnc3c(ccn3Cc3ccc(C(=O)NO)cc3)c2)CC1 [Compound 617, 4-((5-(1-(2-fluoro-2-methylpropyl)-1,2,3,6-tetrahydropyridin-4-yl)-1H-pyrrolo[2,3-b]pyridin-1-yl)methyl)-N-hydroxybenzamide]
9 | 470 | O=C(NO)c1ccc(Cn2ccc3c(-c4ccncc4)ccnc32)cc1 [Compound 657, N-hydroxy-4-((4-(pyridin-4-yl)-1H-pyrrolo[2,3-b]pyridin-1-yl)methyl)benzamide]
8 | 1090 | CC(C)(F)CN1CC=C(c2ccnc3c2ccn3Cc2ccc(C(=O)NO)cc2)CC1 [Compound 630, 4-((4-(1-(2-fluoro-2-methylpropyl)-1,2,3,6-tetrahydropyridin-4-yl)-1H-pyrrolo[2,3-b]pyridin-1-yl)methyl)-N-hydroxybenzamide]
7 | 380 | CCN1CCN(c2ccnc3c2ccn3Cc2ccc(C(=O)NO)cc2)CC1 [Compound 223, 4-((4-(4-ethylpiperazin-1-yl)-1H-pyrrolo[2,3-b]pyridin-1-yl)methyl)-N-hydroxybenzamide]
6 | 790 | Cn1ncc2ccc(-c3cnc4c(ccn4Cc4ccc(C(=O)NO)cc4)c3)cc21 [Compound 685, N-hydroxy-4-((5-(1-methyl-1H-indazol-6-yl)-1H-pyrrolo[2,3-b]pyridin-1-yl)methyl)benzamide]
4 | 1050 | O=C(NO)c1ccc(Cn2ccc3cc(C4=CCOCC4)cnc32)cc1 [Compound 629, 4-((5-(3,6-dihydro-2H-pyran-4-yl)-1H-pyrrolo[2,3-b]pyridin-1-yl)methyl)-N-hydroxybenzamide]
4 | 900 | O=C(NO)c1ccc(Cn2ccc3c(-c4cncnc4)ccnc32)cc1 [Compound 659, N-hydroxy-4-((4-(pyrimidin-5-yl)-1H-pyrrolo[2,3-b]pyridin-1-yl)methyl)benzamide]
3 | 410 | CC(C)N1CCN(c2ccnc3c2ccn3Cc2ccc(C(=O)NO)cc2)CC1 [Compound 225, N-hydroxy-4-((4-(4-isopropylpiperazin-1-yl)-1H-pyrrolo[2,3-b]pyridin-1-yl)methyl)benzamide]
2 | 180 | CN1CCN(c2ccnc3c2ccn3Cc2ccc(C(=O)NO)cc2)CC1 [Compound 224, N-hydroxy-4-((4-(4-methylpiperazin-1-yl)-1H-pyrrolo[2,3-b]pyridin-1-yl)methyl)benzamide]
1.8 |  | COc1ccc(CN2CC3(CCN(c4cnc5c(ccn5Cc5ccc(C(=O)NO)cc5)c4)CC3)C2)cc1 [Compound 1125, N-hydroxy-4-((5-(2-(4-methoxybenzyl)-2,7-diazaspiro[3.5]nonan-7-yl)-1H-pyrrolo[2,3-b]pyridin-1-yl)methyl)benzamide]
0.7 | 1670 | O=C(NO)c1ccc(Cn2ccc3cc(-c4ccc(F)cc4)cnc32)cc1 [Compound 104, 4-((5-(4-fluorophenyl)-1H-pyrrolo[2,3-b]pyridin-1-yl)methyl)-N-hydroxybenzamide]
0.26 | 382 | O=C(NO)c1ccc(Cn2ccc3cc(-c4cccnc4)cnc32)cc1 [Compound 103]
